The text below walks through data of paper PMC7259601 (PLoS ONE, 2020).

The target of one data set is T1, Human recombinant IL-4I1 (Homo sapiens, UniProt Q96RQ9).
T1 construct: purchased RD Systems 5684-AO-020
Put plainly: IL4I1 inhibition assay. The class given is biochemical. The protocol: Human recombinant IL-4I1 was purchased from RD Systems (Ref. 5684-AO-020). The biochemical activity was measured by its ability to oxidize phenylalanine (specific substrate for IL-4I1; Sigma, P2126) and liberate H2O2 was measured in a coupled horseradish peroxidase assay using Amplex Red reagent as a substrate, as described in the KDM1A assay. The IL4I1 assay buffer was 50 mM Sodium Phosphate pH 7.0. Inhibition of IL-4I1 was monitored during 30 min in the presence of KM phenylalanine peptide at the KMapp of IL-4I1.

The next data set in a line: Mouse pharmacokinetics. The note with it: for AUC(0-inf): read-out: Plasma AUCinf; for AUC(0-t): read-out: Plasma AUClast. The class given is in vivo, BALB/c mice. The protocol:
Temperature and humidity were maintained at 22 ± 3 °C and 40-70 %, respectively and illumination was controlled to give a sequence of 12 hr light / dark cycle. The temperature and humidity were recorded by auto-controlled data logger system. All the animals were acclimatized to the experimental conditions for at least three days prior to dosing. All the animals were provided laboratory rodent diet (Vetcare India Pvt. Ltd, Bengaluru) except for overnight before treatment and 2 hr post dose. Reverse osmosis water treated with ultraviolet light was provided ad libitum. Blood samples were collected at 0, 0.05, 0.16, 0.5, 1, 2, 4, 8 & 24 hr for IV and for PO at 0, 0.25, 0.5, 1, 2, 4, 6, 8 and 24 hr post dosing. Each mouse was assigned to one of 3 subgroups and sampled at 3 timepoints. Animals were euthanized by using excess CO2 asphyxiation. The study was conducted at Sai Life Sciences Limited, Pune, India, in accordance with the guidelines of the Institutional Animal Ethics Committee (IAEC) and in accordance with the requirement of Committee for the Purpose of Control and Supervision of Experiments on Animals (CPCSEA), India. Prior approval was obtained before initiation of the study (IAEC Protocol No. IAEC/PRT/012-10; IAEC-CPCSEA).
Plasma was harvested from the blood samples harvested in K2EDTA containing tubes by centrifugation at 4000 rpm for 10 min at 4 ± 2 °C and stored below -70 °C until bioanalysis. Brain tissue was homogenized with phosphate buffer saline (pH 7.4). Total homogenate volume was thrice the tissue weight. All samples were processed for analysis by precipitation using Imipramine as internal standard and analyzed with partially validated LC-MS/MS method. Pharmacokinetic parameters were calculated using the non-compartmental analysis tool of WinNonlin® Enterprise software (Pharsight Corp., USA; version 5.2).
Compound levels from 3 samples per timepoint (for a given dose and route of administration), were used to calculated pharmacokinetic parameters using the non-compartmental analysis tool of WinNonlin® Enterprise software (Pharsight Corp., USA; version 5.2).

In a further data set the test system is SAMP8 mice. Put plainly: Elevated Plus Maze (EPM), SAMP8. Format: in vivo, mouse. The note with it: 0.32 or 0.96 mg/kg/day. The procedure: Both male and female mice from the senescence accelerated strain SAMP8 and its control SAMR1 of different ages (see Table S3 for details) were used in these studies. Mice were breed in the animal facilities of the Pharmacy Faculty (University of Barcelona), maintained in a at 22 ± 2 °C controlled temperature in a 12 hr light / dark cycle (lights on at 8:00 am; 300 lux/0 lux) with ad libitum access to food (2018 TEKLAD, Harlan) and water. Male mice were housed individually (males) or in groups of 4-5 animals (females) in plastic colony boxes with a sawdust bedding material. […] SAMR1 mice treated with vehicle were included as a control. […] Drug concentration was calculated weekly in function of body weight and corrected in function of drinking water consumption. Cognitive function was evaluated by NORT, social behavior was evaluated by RI and anxiety and motor function were evaluated by EPM and OF. […]
The EPM consisted of four arms at right angles to each other connected to a central square and maintained elevated 50 cm above the floor. […] The animal was placed facing a closed arm, and its movements were video-recorded for 5 min and analyzed by video-tracking using SMART® (v3.0, PanLab, SLU, Spain).
Elevated Plus Maze (EPM): Movements were video-recorded for 5 min and analyzed by video-tracking using SMART® (v3.0, PanLab, SLU, Spain).

Data set [1] has as its system I2 (antagonist radioligand). Put plainly: CEREP Diversity Panel. Format: binding. Also noted: % inhibition: dose or concentration left out as unconfirmed. The procedure:
(§1) […]. MAO-A inhibition at 10 μM was 37%, in line with internal data.

The test system of data set [2] is M (non-selective) (antagonist radioligand). Description: CEREP Diversity Panel. Format: binding. Details: % inhibition: dose or concentration left out as unconfirmed. The procedure:
as §1

For a further data set, the target named is KDM1A (Homo sapiens, UniProt O60341). Put plainly: KDM1A inhibition assay (Amplex Red, dimethylH3K4 peptide). Format: biochemical. Details: purchased BPS Bioscience 50100.
[3] abbreviates: male, mouse, plasma, BALB/c mice, intravenous 2 mg/kg.
[4] abbreviates: male, mouse, plasma, BALB/c mice, oral 10 mg/kg.

Read-outs that look alike come from different tables or passages of the source.

T1 sequence (Q96RQ9 22-567): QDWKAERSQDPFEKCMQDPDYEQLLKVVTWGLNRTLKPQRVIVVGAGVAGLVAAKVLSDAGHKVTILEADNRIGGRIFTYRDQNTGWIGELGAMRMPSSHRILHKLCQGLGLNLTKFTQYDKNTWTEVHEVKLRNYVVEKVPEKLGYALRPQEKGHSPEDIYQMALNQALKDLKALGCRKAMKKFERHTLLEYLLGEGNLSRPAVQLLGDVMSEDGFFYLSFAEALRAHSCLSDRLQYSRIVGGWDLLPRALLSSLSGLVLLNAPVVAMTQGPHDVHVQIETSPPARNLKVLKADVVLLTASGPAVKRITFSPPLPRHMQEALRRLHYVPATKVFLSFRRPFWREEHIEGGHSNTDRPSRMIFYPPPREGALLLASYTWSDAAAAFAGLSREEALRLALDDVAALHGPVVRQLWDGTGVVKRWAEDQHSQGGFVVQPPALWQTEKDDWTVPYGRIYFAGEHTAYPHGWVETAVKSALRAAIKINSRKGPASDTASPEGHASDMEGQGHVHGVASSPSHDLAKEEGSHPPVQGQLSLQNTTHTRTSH

What is called inhibition is the drop in the measured response relative to a control, in per cent. For orientation: AUC means concentration integrated over time. Usually clearance stands for the rate of elimination divided by the concentration. Usually half-life stands for the time needed for the level to fall by half in the phase considered. Broadly, the Cmax is the maximum level reached in the sampled fluid or tissue. As a reminder, the Tmax is the time from dosing to the highest level. The % inhibition is how much of the control response was suppressed. What is called IC50 is the concentration needed to halve the response being measured. Take `Nc1nnc(CN[C@@H]2C[C@H]2c2ccc(OCc3ccccc3)cc2)o1` [ORY-2001, vafidemstat]: the inhibition at 10 µM on Human recombinant IL-4I1 came out at 29%. Moreover, in “Mouse pharmacokinetics” (BALB/c mice, oral 10 mg/kg), the “Brain Cmax” value is listed as 5804 ng/g and the Fpo came out at 75%. The AUC in “Mouse pharmacokinetics” (male, mouse, plasma, po, Balb/c mice, p.o. 10 mg/kg, read-out: area-under-the-curve (AUC) (converted)) was 17200 ng·h/mL. Further, in the data set “Mouse pharmacokinetics” (setting [3]), the clearance amounted to 6.8 mL/min/kg, the half-life turned out to be 2.05 h, the AUC(0-inf) is 4880 ng·h/mL and the AUC(0-t) came out at 4570 ng·h/mL. Moreover, the Vd in the data set “Mouse pharmacokinetics” (male, mouse, plasma, BALB/c mice, intravenous 2 mg/kg, read-out: Vss) came to 1.1 L/kg. In the data set “Mouse pharmacokinetics” (setting [4]), the concentration peaked (Cmax) at 4160 ng/mL, the Tmax was 0.25 h, the half-life stood at 2.22 h and the AUC(0-inf) turned out to be 17200 ng·h/mL. For the same compound, the AUC(0-t) in “Mouse pharmacokinetics” (setting [4]) is 17200 ng·h/mL. Also, the “time in the open arms of the EPM” value with SAMP8 mice is on record as “not significantly modified”. Besides, the “% inhibition” value in data set [1] is given as 71%. Further, the “I2 imidazoline receptor inhibition of ligand binding” value in data set [1] (10 μM) was 71%. In data set [2], the “% inhibition” value is on record as 1% and the “muscarinic receptor antagonist (MRA) activity” value is on record as “not an MRA”. This compound also had an IC50 at KDM1A (mean IC50 KDM1A, mean ± SD, minimum 2 independent experiments) of 101 ± 40 nM. Besides, the 50% inhibitory concentration (IC50) on KDM1A (rKDM1A, N = 1, n = 2, read-out: IC50 KDM1A, representative dose-response curve) came out at 105 nM.
